Laboratory results published in US20030109460A1, “Medicinal composition containing camptothecin derivative and ph regulating agent” (priority 2000, published 2003).
Where “and” joins values, the source holds several entries; their conditions need not be identical. Equal entries are not always repeated.

Tests used:
tumor = assay: Anti-tumor effect
[1] = Changes in pH by freeze drying treatment (Example 7); format: physicochemical; settings: for pH Before freeze drying / pH After freeze drying: Compound AS 2 mg, hydrochloric acid; for pH After freeze drying: redissolved to same concentration
Protocol: The pharmaceutical composition containing compound AS methanesulfonate was produced according to the formulation and production scale shown in Table 7 (AS methanesulfonate:maltose=1:19 or 1:38 by weight), and pH of the solution before freeze drying and pH of a solution prepared by dissolving the preparation after freeze drying in water to the same concentration of the solution before freeze drying were measured.

[2] = Solubility under strongly acidic condition; format: physicochemical; settings: strongly acidic condition of pH 2.0 or less; salting out
From the text: Generally, camptothecin derivatives have a lactone ring structure, so it is considered that reduction of the drug effect occurs due to ring-opening of the lactone ring in the structure in the alkaline range. In consequence, it is desirable that a pharmaceutical composition containing a camptothecin derivative having a lactone ring or a salt thereof is maintained within acidic range for the purpose of keeping the lactone ring under closed state. […] From two viewpoints of keeping closed state of lactone ring and ensuring proper solubility of the compound, it is desirable that the pharmaceutical composition of the invention is maintained within a weakly acidic condition by formulating a pH-adjusting substance. In this connection, when the pharmaceutical composition is an aqueous preparation, the term “a weakly acidic condition” as used herein means from about pH 3 to 6, and when the pharmaceutical composition is a freeze-dried preparation, it means that pH of an aqueous solution prepared by dissolving in water is from about pH 3 to 6.

[3] = Stability against heat and light; format: physicochemical; settings: severe treatment with heat and light
Protocol: In consequence, overkill approach and the like sterilization methods which accompany heating are not suited for the pharmaceutical composition of the invention. In order to obtain a substantially sterilized condition, it is desirable to employ a method in which the pharmaceutical composition is prepared under aseptic condition, a method in which a filter sterilization-treated solution of the pharmaceutical composition is made into a freeze-dried preparation, and the like. Particularly, the method for making a freeze-dried preparation is desirable. In addition, it is desirable for its preservation to use a container having shading ability. For example, brown vials and the like can be cited.

[4] = Stability of freeze-dried compound AS methanesulfonate, effect of pH, maltose 50 mg/ml (Example 6); format: physicochemical; settings: colorless vials
Protocol: Maltose was added to an aqueous solution (1.0 mg/ml as a concentration converted to free form) of compound AS methanesulfonate to the final concentration of 50 mg/ml (AS methanesulfonate:maltose=1:38 by weight), and pH was adjusted to 2.5, 3.0, 3.5 or 4.0 by adding hydrochloric acid. […] Colorless vials were used as the container.

[5] = Stability of freeze-dried compound AS methanesulfonate, effect of adding amount of maltose (Example 4); format: physicochemical; settings: brown vials
[6] = Stability of freeze-dried compound AS methanesulfonate, effect of pH, maltose 100 mg/ml (Example 5); format: physicochemical; settings: brown vials
Protocol: Maltose was added to an aqueous solution (1.0 mg/ml as a concentration converted to free form) of compound AS methanesulfonate to the final concentration of 100 mg/ml (AS methanesulfonate:maltose=1:77 by weight), and pH was adjusted to 3.5, 4.0 or 4.5 by adding hydrochloric acid. […] Brown vials were used as the container.

[7] = Long term stability of freeze-dried compound AS methanesulfonate (Example 8); format: physicochemical
Protocol: A 1.4 kg portion of maltose and 73 g (56 g as converted to free form) of compound AS methanesulfonate was dissolved in 22 L of water (AS methanesulfonate:maltose=1:19 by weight). […] After freeze drying, this was stored under a condition of 5° C. or 25° C. with a relative humidity of 60%, and then dissolved in water to the same concentration of the solution before freeze drying to measure pH. […] Colorless vials were used as the container.

[8] = Production scale 28.0 L, Maltose 50 mg, water total vol. 1 ml
[9] = Production scale 90.0 L, Maltose 100 mg, water total vol. 2 ml
[10] = 25° C., 60% R.H., Starting time

For `CC[C@@]1(O)C(=O)OCc2c1cc1n(c2=O)Cc2c-1nc1cc(F)c(C)c3c1c2[C@@H](N)CC3` [compound AS, (1S,9S)-1-amino-9-ethyl-5-fluoro-2,3-dihydro-9-hydroxy-4-methyl-1H,12H-benzo[de]pyrano[3′,4′:6,7]indolizino[1,2-b]quinoline-10,13(9H,15H)-dione], the anti-tumor effect (tumor) was “potent anti-tumor effect”, the “anti-tumor effect relative to compound AR” value (tumor; compound AS versus compound AR) was “about two times higher” and the “pH Before freeze drying” value [1, 8] was 3.73 and 3.67. For the same compound, the “pH After freeze drying” value [1, 8] was 4.00 and 3.83, the “pH Before freeze drying” value [1, 9] was 3.85 and the “pH After freeze drying” value [1, 9] was 3.97.

In the case of `CC[C@@]1(O)C(=O)OCc2c1cc1n(c2=O)Cc2c-1nc1cc(F)c(C)c3c1c2C(N)CC3` (stereo partly drawn) [compound A, (9S)-1-amino-9-ethyl-5-fluoro-2,3-dihydro-9-hydroxy-4-methyl-1H,12H-benzo[de]pyrano[3′,4′:6,7]indolizino[1,2-b]quinoline-10,13(9H,15H)-dione], the solubility [2] is reported as “considerably reduced” and the “stability against heat and light” value [3] is reported as “considerably unstable”.

With `CC[C@@]1(O)C(=O)OCc2c1cc1n(c2=O)Cc2c-1nc1cc(F)c(C)c3c1c2[C@H](N)CC3` [compound AR, (1R,9S)-1-amino-9-ethyl-5-fluoro-2,3-dihydro-9-hydroxy-4-methyl-1H,12H-benzo[de]pyrano[3′,4′:6,7]indolizino[1,2-b]quinoline-10,13 (9H,15H)-dione] the anti-tumor effect (tumor) was “potent anti-tumor effect”.

In the case of `CC[C@@]1(O)C(=O)OCc2c1cc1n(c2=O)Cc2c-1nc1cc(F)c(C)c3c1c2[C@@H](N)CC3.CS(=O)(=O)O` [compound AS methanesulfonate, (1S,9S)-1-amino-9-ethyl-5-fluoro-2,3-dihydro-9-hydroxy-4-methyl-1H,12H-benzo[de]pyrano[3′,4′:6,7]indolizino[1,2-b]quinoline-10,13(9H,15H)-dione methanesulfonate], the “Weight % of total analogous matter” value ([4]; pH 2.5, 60° C., 2 weeks) is reported as 21.43 Weight %, the “Weight % of total analogous matter” value ([4]; pH 2.5, Starting time) is reported as 1.05 Weight % and the “Weight % of total analogous matter” value ([4]; pH 3.0, 60° C., 2 weeks) is reported as 10.64 Weight %. For the same compound, the “Weight % of total analogous matter” value ([4]; pH 3.0, Starting time) was 0.42 Weight %, the “Weight % of total analogous matter” value ([4]; pH 3.5, 60° C., 2 weeks) was 5.07 Weight % and the “Weight % of total analogous matter” value ([4]; pH 3.5, Starting time) was 0.27 Weight %. For the same compound, the “Weight % of total analogous matter” value ([4]; pH 4.0, 60° C., 2 weeks) was 1.83 Weight %, the “Weight % of total analogous matter” value ([4]; pH 4.0, Starting time) was 0.23 Weight % and the “Weight % of total analogous matter” value ([5]; Maltose 50 mg/ml, 40° C., 75% R.H., 1 month, pH 4.0) was 0.52 Weight %. For the same compound, the “Weight % of total analogous matter” value ([5]; Maltose 50 mg/ml, 50° C., 1 month, pH 4.0) was 0.80 Weight %, the “Weight % of total analogous matter” value ([5]; Maltose 50 mg/ml, Starting time, pH 4.0 hydrochloric acid) was 0.34 Weight % and the “Weight % of total analogous matter” value ([5]; Maltose 100 mg/ml, 40° C., 75% R.H., 1 month, pH 4.0) was 1.36 Weight %. For the same compound, the “Weight % of total analogous matter” value ([5]; Maltose 100 mg/ml, 50° C., 1 month, pH 4.0) was 2.24 Weight %, the “Weight % of total analogous matter” value ([5]; Maltose 100 mg/ml, Starting time, pH 4.0) was 0.50 Weight % and the “Weight % of total analogous matter” value ([6]; pH 3.5, 40° C., 75% R.H., 1 month) was 3.12 Weight %. For the same compound, the “Weight % of total analogous matter” value ([6]; pH 3.5, 60° C., 2 weeks) was 7.52 Weight %, the “Weight % of total analogous matter” value ([6]; pH 3.5, Starting time) was 0.72 Weight % and the “Weight % of total analogous matter” value ([6]; pH 4.0, 40° C., 75% R.H., 1 month) was 1.36 Weight %. For the same compound, the “Weight % of total analogous matter” value ([6]; pH 4.0, 60° C., 2 weeks) was 3.13 Weight %, the “Weight % of total analogous matter” value ([6]; pH 4.0, Starting time) was 0.50 Weight % and the “Weight % of total analogous matter” value ([6]; pH 4.5, 40° C., 75% R.H., 1 month) was 0.51 Weight %. The “Weight % of total analogous matter” value ([6]; pH 4.5, 60° C., 2 weeks) was 0.75 Weight %, the “Weight % of total analogous matter” value ([6]; pH 4.5, Starting time) was 0.40 Weight % and the “Total analogous matter weight %” value ([7]; 5° C., 1 month) was 0.32 weight %. For the same compound, the pH ([7]; 5° C., 1 month) was 3.9, the “Total analogous matter weight %” value ([7]; 5° C., 3 months) was 0.33 weight % and the pH ([7]; 5° C., 3 months) was 3.9. The “Total analogous matter weight %” value ([7]; 5° C., 6 months) was 0.33 weight %, the pH ([7]; 5° C., 6 months) was 3.7 and the “Total analogous matter weight %” value ([7]; 5° C., 9 months) was 0.33 weight %. For the same compound, the pH ([7]; 5° C., 9 months) was 4.0, the “Total analogous matter weight %” value ([7]; 5° C., 12 months) was 0.33 weight % and the pH ([7]; 5° C., 12 months) was 3.9. The “Total analogous matter weight %” value ([7]; 5° C., 24 months) was 0.33 weight %, the pH ([7]; 5° C., 24 months) was 4.1 and the “Total analogous matter weight %” value ([7]; 5° C., 30 months) was 0.33 weight %. For the same compound, the pH ([7]; 5° C., 30 months) was 4.6, the “Total analogous matter weight %” value ([7]; 5° C., 37 months) was 0.32 weight % and the pH ([7]; 5° C., 37 months) was 3.7. The “Total analogous matter weight %” value ([7]; 5° C., Starting time, colorless vials) was 0.33 weight %, the pH ([7]; 5° C., Starting time, redissolved in water) was 3.8 and the “Total analogous matter weight %” value ([7]; 25° C., 60% R.H., 1 month) was 0.33 weight %. The pH ([7]; 25° C., 60% R.H., 1 month) was 3.9, the “Total analogous matter weight %” value ([7]; 25° C., 60% R.H., 3 months) was 0.33 weight % and the pH ([7]; 25° C., 60% R.H., 3 months) was 3.9. The “Total analogous matter weight %” value ([7]; 25° C., 60% R.H., 6 months) was 0.33 weight %, the pH ([7]; 25° C., 60% R.H., 6 months) was 3.7 and the “Total analogous matter weight %” value ([7]; 25° C., 60% R.H., 9 months) was 0.33 weight %. For the same compound, the pH ([7]; 25° C., 60% R.H., 9 months) was 4.0, the “Total analogous matter weight %” value ([7]; 25° C., 60% R.H., 12 months) was 0.33 weight % and the pH ([7]; 25° C., 60% R.H., 12 months) was 4.0. For the same compound, the “Total analogous matter weight %” value ([7]; 25° C., 60% R.H., 24 months) was 0.33 weight %, the pH ([7]; 25° C., 60% R.H., 24 months) was 4.3 and the “Total analogous matter weight %” value ([7]; 25° C., 60% R.H., 37 months) was 0.33 weight %. For the same compound, the pH ([7]; 25° C., 60% R.H., 37 months) was 3.9, the “Total analogous matter weight %” value [7, 10] was 0.33 weight % and the pH [7, 10] was 3.8. For the same compound, the “formation of the total analogous matter as weight %” value ([7]; until 37 months) was ≤ 0.33% and the “change of pH by freeze drying treatment” value ([1]; maltose 1:19 or 1:38 by weight) was “hardly changes”.
